In patent publication US11208412B2 (DAEGU-GYEONGBUK MEDICAL INNOVATION FOUNDATION, priority 2017, dated 2021) one finds remaining binding data, which are given here for three compounds.

Holding throughout (test): Kinase selectivity, DiscoverX scanMAX Kinase assay panel (% control)
What all share (assay type): binding

In experiment [1] the target is T1, kinases of the scanMAX Kinase assay panel (Homo sapiens, UniProt P00533, DEL746-750).
T1 construct: purchased DiscoverX Co. (contract measurement) scanMAX Kinase assay panel
T1 sequence (P00533 with tags, fused parts or gaps DEL746-750): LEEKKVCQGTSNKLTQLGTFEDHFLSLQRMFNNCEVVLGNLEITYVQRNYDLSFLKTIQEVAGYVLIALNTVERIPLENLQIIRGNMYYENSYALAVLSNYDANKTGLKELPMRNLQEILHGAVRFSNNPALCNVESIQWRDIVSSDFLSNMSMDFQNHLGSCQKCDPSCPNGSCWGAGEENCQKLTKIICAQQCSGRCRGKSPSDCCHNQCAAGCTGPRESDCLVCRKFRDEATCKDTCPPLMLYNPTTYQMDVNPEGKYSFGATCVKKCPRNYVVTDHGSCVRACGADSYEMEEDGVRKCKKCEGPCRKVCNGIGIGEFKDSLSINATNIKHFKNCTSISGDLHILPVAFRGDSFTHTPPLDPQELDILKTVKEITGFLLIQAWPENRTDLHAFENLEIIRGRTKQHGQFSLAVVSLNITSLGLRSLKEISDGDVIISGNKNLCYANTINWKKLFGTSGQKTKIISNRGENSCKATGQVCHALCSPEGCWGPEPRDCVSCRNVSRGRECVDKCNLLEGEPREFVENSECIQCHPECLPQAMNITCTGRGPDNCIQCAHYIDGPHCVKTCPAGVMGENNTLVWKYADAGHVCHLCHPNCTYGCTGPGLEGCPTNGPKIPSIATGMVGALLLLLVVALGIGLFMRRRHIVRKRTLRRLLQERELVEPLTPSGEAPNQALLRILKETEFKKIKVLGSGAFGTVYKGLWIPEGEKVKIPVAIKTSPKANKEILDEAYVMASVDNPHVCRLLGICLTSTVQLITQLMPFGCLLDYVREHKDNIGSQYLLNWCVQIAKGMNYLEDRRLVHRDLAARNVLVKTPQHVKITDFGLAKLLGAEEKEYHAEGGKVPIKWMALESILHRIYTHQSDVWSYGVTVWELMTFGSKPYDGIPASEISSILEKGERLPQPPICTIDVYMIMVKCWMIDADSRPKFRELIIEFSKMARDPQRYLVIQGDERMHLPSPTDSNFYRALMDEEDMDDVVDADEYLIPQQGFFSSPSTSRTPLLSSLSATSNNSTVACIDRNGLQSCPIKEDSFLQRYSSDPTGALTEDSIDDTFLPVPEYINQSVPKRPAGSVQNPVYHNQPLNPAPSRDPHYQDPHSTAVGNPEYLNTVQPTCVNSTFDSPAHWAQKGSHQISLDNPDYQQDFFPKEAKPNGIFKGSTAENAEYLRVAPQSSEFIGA
To be noted: EGFR(E746-A750de1); 1 uM. The essentials: (§1)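 Compounds tested at 1 uM against the scanMAX kinase panel. Signal expressed as % control = (compound − positive control)/(DMSO negative control − positive control) × 100, where positive control = 0% and DMSO = 100%; below 35% counted as activity on that kinase.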

Experiment [2] concerns the target T2, kinases of the scanMAX Kinase assay panel (Homo sapiens, UniProt O15264).
T2 construct: purchased DiscoverX Co. (contract measurement) scanMAX Kinase assay panel
T2 sequence (O15264 1-365): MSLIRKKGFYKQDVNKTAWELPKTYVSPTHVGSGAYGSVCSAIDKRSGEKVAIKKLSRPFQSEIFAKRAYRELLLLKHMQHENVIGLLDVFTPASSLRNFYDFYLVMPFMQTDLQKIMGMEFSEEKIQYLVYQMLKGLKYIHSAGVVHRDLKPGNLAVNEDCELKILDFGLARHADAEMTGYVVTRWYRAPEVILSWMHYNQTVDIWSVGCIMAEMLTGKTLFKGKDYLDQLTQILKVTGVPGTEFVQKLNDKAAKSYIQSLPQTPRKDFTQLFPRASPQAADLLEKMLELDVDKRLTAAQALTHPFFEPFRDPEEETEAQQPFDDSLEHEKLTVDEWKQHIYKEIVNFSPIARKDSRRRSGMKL
To be noted: p38-delta; 1 uM. The essentials:
as §1

In experiment [3] the target is T3, kinases of the scanMAX Kinase assay panel (Homo sapiens, UniProt P54760).
T3 construct: purchased DiscoverX Co. (contract measurement) scanMAX Kinase assay panel
T3 sequence (P54760 16-987): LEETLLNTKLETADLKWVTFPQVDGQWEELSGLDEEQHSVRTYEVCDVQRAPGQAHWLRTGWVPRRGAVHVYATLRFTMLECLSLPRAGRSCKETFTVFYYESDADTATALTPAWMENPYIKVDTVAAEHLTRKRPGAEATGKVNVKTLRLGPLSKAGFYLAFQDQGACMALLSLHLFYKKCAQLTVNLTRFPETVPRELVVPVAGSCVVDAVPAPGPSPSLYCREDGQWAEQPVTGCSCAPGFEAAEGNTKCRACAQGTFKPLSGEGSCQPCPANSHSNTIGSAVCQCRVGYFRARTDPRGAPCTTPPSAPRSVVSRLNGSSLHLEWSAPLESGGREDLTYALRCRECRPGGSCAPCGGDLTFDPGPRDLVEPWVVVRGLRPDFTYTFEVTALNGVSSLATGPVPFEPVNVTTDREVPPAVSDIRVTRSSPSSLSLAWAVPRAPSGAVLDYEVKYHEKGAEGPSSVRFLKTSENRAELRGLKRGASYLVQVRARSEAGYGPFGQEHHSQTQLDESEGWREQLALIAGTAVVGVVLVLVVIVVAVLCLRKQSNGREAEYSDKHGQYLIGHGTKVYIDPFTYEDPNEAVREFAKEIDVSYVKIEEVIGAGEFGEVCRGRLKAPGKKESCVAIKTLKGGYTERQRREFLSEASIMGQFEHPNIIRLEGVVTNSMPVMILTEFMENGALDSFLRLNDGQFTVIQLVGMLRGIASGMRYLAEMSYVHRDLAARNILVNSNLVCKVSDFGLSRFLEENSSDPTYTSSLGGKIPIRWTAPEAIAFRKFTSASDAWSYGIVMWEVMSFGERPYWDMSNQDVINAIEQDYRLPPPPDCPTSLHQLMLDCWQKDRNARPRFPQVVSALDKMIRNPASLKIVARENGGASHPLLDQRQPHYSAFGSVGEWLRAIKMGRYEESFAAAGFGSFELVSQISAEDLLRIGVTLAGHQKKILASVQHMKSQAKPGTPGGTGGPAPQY
Conditions: EPHB4; 1 uM. Summed up:
as §1

For experiment [4], the target named is T4, kinases of the scanMAX Kinase assay panel (Homo sapiens, UniProt Q8TD19).
T4 construct: purchased DiscoverX Co. (contract measurement) scanMAX Kinase assay panel
T4 sequence (Q8TD19 1-979): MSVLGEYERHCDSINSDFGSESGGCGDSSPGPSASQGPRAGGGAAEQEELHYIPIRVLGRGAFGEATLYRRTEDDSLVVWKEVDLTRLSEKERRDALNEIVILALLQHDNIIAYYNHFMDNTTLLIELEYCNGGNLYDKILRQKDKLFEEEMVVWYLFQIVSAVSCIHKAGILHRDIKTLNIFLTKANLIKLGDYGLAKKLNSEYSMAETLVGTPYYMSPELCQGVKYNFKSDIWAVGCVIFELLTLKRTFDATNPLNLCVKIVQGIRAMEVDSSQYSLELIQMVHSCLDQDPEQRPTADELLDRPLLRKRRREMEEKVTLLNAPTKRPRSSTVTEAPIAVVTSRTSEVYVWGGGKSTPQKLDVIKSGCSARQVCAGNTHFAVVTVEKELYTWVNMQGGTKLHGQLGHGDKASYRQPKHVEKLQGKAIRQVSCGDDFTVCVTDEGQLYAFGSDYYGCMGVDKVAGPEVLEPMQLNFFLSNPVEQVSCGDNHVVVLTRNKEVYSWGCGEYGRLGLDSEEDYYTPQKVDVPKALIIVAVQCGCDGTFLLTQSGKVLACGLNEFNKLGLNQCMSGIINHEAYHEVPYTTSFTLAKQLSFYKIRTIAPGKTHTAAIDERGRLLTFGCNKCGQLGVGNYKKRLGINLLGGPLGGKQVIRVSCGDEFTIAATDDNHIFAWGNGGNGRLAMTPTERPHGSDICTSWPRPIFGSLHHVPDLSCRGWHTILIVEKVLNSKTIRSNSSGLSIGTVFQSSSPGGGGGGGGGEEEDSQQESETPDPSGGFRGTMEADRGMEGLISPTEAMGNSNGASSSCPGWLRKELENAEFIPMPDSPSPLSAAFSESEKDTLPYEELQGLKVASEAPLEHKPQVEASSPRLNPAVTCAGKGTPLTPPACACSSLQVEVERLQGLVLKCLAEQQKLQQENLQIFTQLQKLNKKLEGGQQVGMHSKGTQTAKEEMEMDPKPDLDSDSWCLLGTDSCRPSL
To be noted: NEK9; 1 uM. The essentials:
as §1

Take `CNc1nc(Nc2ccc(C(=O)N3CCOCC3)cc2OC)nc2[nH]cc(C#N)c12` [Example 1, 2-((2-methoxy-4-(morpholine-4-carbonyl)phenyl)amino)-4-(methylamino)-7H-pyrrolo[2,3-d]pyrimidine-5-carbonitrile]: the remaining binding at 1 µM in experiment [1] stood at 97%; in experiment [2], 100%; in experiment [3], 95%; in experiment [4] it was 100%.
For `CC1(Nc2nc(Nc3cnn([C@H]4CCN(C5COC5)C[C@@H]4F)c3Cl)nc3[nH]cc(C#N)c23)CC1` [Example 52, 2-((5-chloro-1-((3S,4S)-3-fluoro-1-(oxetane-3-yl)piperidine-4-yl)-1H-pyrazole-4-yl)amino)((1-methylcyclopropyl)amino)-7H-pyrrolo[2,3-d]pyrimidine-5-carbonitrile], the remaining binding at 1 µM in experiment [1] is 59%; in experiment [2], 76%; in experiment [3], 48%; in experiment [4], 73%.
For `CCNc1nc(Nc2ccc(C(=O)N3CCC(N4CCOCC4)CC3)cc2OC)nc2[nH]cc(C(F)(F)F)c12` [Example 104, (4-((4-(ethylamino)-5-(trifluoromethyl)-7H-pyrrolo[2,3-d]pyrimidine-2-yl)amino)-3-methoxyphenyl)(4-morpholinopiperidine-1-yl)methanone], in that order: 100%, 95%, 100% and 99%.
